{
  "source": "patent US20120129892A1",
  "about": "“NOVEL PHARMACEUTICALLY ACCEPTABLE SALTS OF 4-(1H-IMIDAZOL-4-[…])PYRIDINE AND THEIR THERAPEUTICAL USES” (BIOPROJET, priority 2009, published 2012)",
  "key": {"H3R in brain [1]": {"biological_target": "H3R in brain (Mus musculus, UniProt P58406)", "sequence (P58406 whole entry)": "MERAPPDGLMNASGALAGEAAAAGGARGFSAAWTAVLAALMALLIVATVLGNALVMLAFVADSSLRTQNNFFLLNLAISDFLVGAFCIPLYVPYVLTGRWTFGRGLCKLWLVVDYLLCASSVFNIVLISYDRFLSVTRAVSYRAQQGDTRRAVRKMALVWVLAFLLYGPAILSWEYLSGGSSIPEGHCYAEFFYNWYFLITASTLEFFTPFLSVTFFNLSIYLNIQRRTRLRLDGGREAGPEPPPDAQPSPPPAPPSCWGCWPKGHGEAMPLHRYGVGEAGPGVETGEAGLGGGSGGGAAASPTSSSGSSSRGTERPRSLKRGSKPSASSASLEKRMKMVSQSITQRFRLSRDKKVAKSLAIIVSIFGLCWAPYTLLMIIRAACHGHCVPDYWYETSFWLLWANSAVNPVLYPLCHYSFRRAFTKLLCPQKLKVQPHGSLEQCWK", "conditions": "mice, oral, immethridine base and salts at 0.3 mg/kg, imetit: maximal reduction"}, "human HMT": {"biological_target": "human HMT (Homo sapiens, UniProt P50135)", "sequence (P50135 whole entry)": "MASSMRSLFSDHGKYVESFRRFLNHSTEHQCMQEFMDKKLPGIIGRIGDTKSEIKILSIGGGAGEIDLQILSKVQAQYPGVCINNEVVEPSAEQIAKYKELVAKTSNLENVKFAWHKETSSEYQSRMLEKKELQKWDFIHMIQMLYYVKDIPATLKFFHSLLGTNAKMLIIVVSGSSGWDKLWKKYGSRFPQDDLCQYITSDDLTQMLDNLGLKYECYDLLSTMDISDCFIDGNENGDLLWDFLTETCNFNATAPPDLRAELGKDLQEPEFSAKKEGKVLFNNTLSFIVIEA", "experiment": "tele-methylation by HMT, cytosol of fresh human hepatocytes, Lineweaver-Burk analysis", "conditions": "pH 7.4, 20 μM (S)-adenosyl methionine"}, "[2]": {"experiment": "stability on heating at 80° C. during one week, HPLC analysis"}, "[3]": {"experiment": "hygroscopy: water uptake in a water-saturated atmosphere at room temperature", "assay_type": "physicochemical", "conditions": "a few days in water-saturated atmosphere at room temperature, listed as immethridine dioxalate"}, "[4]": {"experiment": "sleep EEG recording in rats (24-hr recordings)", "assay_type": "in vivo", "conditions": "for tolerance to sleep-promoting / hypnotic effect: repeated o.d. administration over several days", "from_the_text": "While the sleep-promoting activity of several other H3R agonists has been previously described (Lin et al., Brain Res., 1990, 523, 325-330; Monti et al., Neuropsychopharmacology, 1996, 15, 31-35), much higher dosages—by two to three orders of magnitude—were required to obtain this effect.\nThis is in contrast with the long-lasting disorders of circadian rhythms, namely the relative insomnia, which occur at the interruption of a repeated treatment with benzodiazepines or imidazopyridines such as Zolpidem."}, "hERG potassium channel [5]": {"biological_target": "T1, hERG potassium channel (Homo sapiens, UniProt Q12809)", "T1 sequence (Q12809 whole entry)": "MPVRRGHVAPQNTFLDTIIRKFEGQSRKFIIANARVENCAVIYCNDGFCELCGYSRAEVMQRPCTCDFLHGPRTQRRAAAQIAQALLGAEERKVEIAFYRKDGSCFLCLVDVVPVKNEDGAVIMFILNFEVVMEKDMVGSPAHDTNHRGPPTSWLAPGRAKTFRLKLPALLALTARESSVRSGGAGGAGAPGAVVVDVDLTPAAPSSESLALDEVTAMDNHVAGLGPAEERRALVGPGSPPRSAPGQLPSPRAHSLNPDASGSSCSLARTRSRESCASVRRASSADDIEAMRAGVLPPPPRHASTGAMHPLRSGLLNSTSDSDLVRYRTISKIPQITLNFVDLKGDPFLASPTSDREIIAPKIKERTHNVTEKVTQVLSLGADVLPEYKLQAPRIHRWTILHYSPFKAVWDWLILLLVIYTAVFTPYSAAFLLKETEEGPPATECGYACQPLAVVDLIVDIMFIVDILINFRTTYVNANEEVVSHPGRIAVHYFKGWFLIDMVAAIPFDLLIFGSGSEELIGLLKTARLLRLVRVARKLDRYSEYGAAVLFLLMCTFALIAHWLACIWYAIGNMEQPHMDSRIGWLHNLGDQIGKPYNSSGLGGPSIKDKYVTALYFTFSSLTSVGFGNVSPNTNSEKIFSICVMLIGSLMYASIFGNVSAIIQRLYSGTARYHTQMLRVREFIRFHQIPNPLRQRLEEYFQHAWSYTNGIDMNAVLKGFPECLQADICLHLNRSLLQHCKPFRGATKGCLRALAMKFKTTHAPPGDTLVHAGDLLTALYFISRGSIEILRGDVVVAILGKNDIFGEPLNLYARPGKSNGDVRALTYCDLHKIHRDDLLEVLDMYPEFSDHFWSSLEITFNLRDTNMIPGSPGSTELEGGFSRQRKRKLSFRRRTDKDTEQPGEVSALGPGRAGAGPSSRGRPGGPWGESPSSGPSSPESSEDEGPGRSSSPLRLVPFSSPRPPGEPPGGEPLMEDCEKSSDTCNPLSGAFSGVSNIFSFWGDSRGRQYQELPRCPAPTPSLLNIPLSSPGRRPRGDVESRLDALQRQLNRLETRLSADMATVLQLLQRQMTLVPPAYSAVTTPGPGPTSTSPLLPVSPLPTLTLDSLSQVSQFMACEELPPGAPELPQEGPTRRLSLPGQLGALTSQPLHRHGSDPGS", "experiment": "[3H]dofetidide binding assay, HEK-293 cells stably expressing hERG", "conditions": "concentrations up to 10 μM"}, "[6]": {"experiment": "general tolerance in rodents", "assay_type": "in vivo", "conditions": "doses as high as 100 mg/kg", "procedure": "(§1) Accordingly, rats treated orally for 18 days by 20 mg/kg o.d."}, "[7]": {"biological_target": "recombinant human cytochrome P450 2D6 (Homo sapiens, UniProt P10635)", "sequence (P10635 whole entry, canonical isoform)": "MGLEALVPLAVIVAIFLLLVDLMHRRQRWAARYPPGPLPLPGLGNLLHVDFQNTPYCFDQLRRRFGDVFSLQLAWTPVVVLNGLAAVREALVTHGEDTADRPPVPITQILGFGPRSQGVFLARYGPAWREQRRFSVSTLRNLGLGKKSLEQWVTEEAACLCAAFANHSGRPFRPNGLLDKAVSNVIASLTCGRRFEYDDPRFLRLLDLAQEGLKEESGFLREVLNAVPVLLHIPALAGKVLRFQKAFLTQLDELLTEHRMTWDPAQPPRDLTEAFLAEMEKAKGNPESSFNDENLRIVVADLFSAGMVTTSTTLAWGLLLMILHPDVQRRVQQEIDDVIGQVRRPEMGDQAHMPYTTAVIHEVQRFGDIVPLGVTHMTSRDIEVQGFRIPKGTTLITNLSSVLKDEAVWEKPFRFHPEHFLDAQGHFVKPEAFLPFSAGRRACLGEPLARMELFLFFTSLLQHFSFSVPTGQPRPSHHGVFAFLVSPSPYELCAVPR", "experiment": "inhibition of recombinant human cytochrome P450 2D6", "assay_type": "in vitro ADME", "conditions": "read-out: IC50 at 2D6 isoform", "from_the_text": "(§2) These values are over 3 orders of magnitude higher than the expected plasma or tissue concentrations at therapeutic dosage."}, "[8]": {"biological_target": "recombinant human cytochrome P450 3A4 (Homo sapiens, UniProt P08684)", "sequence (P08684 whole entry, canonical isoform)": "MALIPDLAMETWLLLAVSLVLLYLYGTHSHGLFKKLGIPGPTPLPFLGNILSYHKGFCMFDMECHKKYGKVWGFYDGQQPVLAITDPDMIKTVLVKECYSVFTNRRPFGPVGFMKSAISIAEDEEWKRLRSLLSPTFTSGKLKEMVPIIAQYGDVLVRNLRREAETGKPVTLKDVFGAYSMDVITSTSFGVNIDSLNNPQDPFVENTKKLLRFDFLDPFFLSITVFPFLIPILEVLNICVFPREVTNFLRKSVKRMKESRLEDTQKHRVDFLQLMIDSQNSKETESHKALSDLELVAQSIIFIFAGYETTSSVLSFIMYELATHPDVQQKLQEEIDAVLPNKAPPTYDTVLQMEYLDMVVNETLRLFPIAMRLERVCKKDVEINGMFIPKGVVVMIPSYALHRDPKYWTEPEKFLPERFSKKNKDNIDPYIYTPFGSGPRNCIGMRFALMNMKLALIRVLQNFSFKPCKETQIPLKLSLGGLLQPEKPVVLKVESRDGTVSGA", "experiment": "inhibition of recombinant human cytochrome P450 3A4", "assay_type": "in vitro ADME", "conditions": "read-out: IC50 at 3A4 isoform", "from_the_text": "as §2"}, "[9]": {"experiment": "AUCs of unchanged drug and tele methylated derivative in mouse brain and blood", "assay_type": "in vivo", "conditions": "1 mg/kg, p.o."}, "[10]": {"experiment": "withdrawal symptoms after interruption of repeated Zolpidem treatment in rats", "assay_type": "in vivo", "conditions": "18 days 20 mg/kg o.d. oral Zolpidem followed by 0.3 mg/kg, p.o.", "procedure": "as §1"}, "recombinant hH3R": {"biological_target": "T2, recombinant hH3R (Homo sapiens, UniProt Q9Y5N1)", "T2 construct": "expressed in transfected cells; host or cells: HEK 293 cells", "T2 sequence (Q9Y5N1 whole entry)": "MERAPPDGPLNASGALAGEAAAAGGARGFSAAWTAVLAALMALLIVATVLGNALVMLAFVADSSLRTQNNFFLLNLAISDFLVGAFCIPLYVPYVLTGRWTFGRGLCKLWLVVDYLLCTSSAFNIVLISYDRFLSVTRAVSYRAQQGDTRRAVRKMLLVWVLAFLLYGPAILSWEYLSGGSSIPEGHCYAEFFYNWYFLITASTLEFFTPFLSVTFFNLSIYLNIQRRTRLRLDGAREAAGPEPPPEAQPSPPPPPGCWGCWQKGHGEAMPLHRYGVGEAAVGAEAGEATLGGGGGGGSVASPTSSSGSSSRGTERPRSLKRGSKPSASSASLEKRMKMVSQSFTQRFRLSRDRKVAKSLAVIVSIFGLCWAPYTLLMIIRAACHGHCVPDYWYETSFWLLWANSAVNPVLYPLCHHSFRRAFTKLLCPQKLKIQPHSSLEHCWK", "experiment": "[35S]GTPγS binding activation on recombinant hH3R expressed in HEK 293 cells", "assay_type": "biochemical"}, "[11]": {"biological_target": "recombinant human cytochrome P450 2C9 (Homo sapiens, UniProt P11712)", "sequence (P11712 whole entry, canonical isoform)": "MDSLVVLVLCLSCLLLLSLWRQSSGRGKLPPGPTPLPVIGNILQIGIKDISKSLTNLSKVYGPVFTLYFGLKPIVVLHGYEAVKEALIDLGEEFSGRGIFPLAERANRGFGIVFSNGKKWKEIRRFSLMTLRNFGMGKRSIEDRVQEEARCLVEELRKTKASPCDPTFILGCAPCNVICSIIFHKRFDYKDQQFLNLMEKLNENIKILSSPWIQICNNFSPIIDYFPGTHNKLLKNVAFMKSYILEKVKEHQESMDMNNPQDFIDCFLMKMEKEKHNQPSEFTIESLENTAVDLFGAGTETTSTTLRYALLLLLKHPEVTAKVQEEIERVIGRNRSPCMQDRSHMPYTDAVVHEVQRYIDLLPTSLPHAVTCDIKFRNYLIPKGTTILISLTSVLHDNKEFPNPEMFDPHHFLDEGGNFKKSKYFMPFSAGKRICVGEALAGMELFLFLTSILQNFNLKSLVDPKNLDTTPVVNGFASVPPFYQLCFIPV", "experiment": "inhibition of recombinant human cytochrome P450 2C9", "assay_type": "in vitro ADME", "conditions": "read-out: IC50 at 2C9 isoform", "from_the_text": "as §2"}, "hERG potassium channel [12]": {"biological_target": "T1, hERG potassium channel", "experiment": "potassium hERG current, functional patch clamp assay in HEK-293 cells", "conditions": "concentrations up to 10 μM"}, "[13]": {"experiment": "AUCs of unchanged drug and metabolite in rat brain and blood", "conditions": "Sprague-Dawley, po, 1 mg/kg"}, "H3R in brain [14]": {"test_system": "H3R in brain", "experiment": "reduction of brain tele methylhistamine levels after oral dosing (ED50)"}, "[15]": {"test_system": "human CYP 450 isoforms (3A4, 2C9, 2E1, 2B6) and UGTs", "experiment": "induction of CYP 450 isoforms and UGTs in human hepatocytes", "assay_type": "in vitro ADME", "conditions": "concentrations over 3 orders of magnitude higher than expected therapeutic concentrations"}, "H3R": {"biological_target": "T3, H3R (Rattus norvegicus, UniProt Q9QYN8)", "T3 construct": "host or cells: living rats (brain)", "T3 sequence (Q9QYN8 whole entry)": "as the sequence (P58406 whole entry) above, with A15T, T286A, G290A, H387R, V389I counted along it", "conditions": "rats, intraperitoneal, doses as high as 10 mg/kg necessary (Celanire et al.); cited from earlier work"}, "human H3R": {"biological_target": "human H3R (Homo sapiens, UniProt Q9Y5N1)", "sequence (Q9Y5N1 whole entry)": "as the sequence (Q9Y5N1 whole entry) above", "experiment": "β arrestin translocation", "assay_type": "cell-based"}},
  "note": "Where a name gives a salt, the structure may show the parent alone. Read-outs that look alike come from different tables or passages of the source.",
  "data": [
    {"compound": "c1cc(Cc2c[nH]cn2)ccn1", "note": "[BP1.5375 (alpha keto-glutarate salt)]", "values": [
      {"measurement": "t-methylhistamine brain level variation vs. control, mean (%)", "setting": "H3R in brain [1]; listed as Immethridine alpha-ketoglutarate, 0.3 mg/kg", "result": "−46.1", "unit": "%"}
    ]},
    {"compound": "c1cc(Cc2c[nH]cn2)ccn1", "note": "[BP1.5375 (dibromhydrate salt)]", "values": [
      {"measurement": "Vm", "setting": "human HMT", "result": 0.004, "unit": "µM/min"}
    ]},
    {"compound": "c1cc(Cc2cnc[nH]2)ccn1", "note": "[BP1.5375 (dioxalate salt), 4-(1H-imidazol-4-ylmethyl)-pyridine dioxalate]", "values": [
      {"measurement": "stability when heated", "setting": "[2]; listed as immethridine dioxalate, dioxalate", "result": "no apparent degradation"},
      {"measurement": "water uptake, % of weight", "setting": "[3]", "result": "13-15%"}
    ]},
    {"compound": "c1cc(Cc2c[nH]cn2)ccn1", "note": "[BP1.5375 (ditoluenesulfonate salt)]", "values": [
      {"measurement": "t-methylhistamine brain level variation vs. control, mean (%)", "setting": "H3R in brain [1]; listed as Immethridine di p-toluene sulfonate, 0.3 mg/kg", "result": "−41.6", "unit": "%"},
      {"measurement": "Vm", "setting": "human HMT", "result": 0.004, "unit": "µM/min"}
    ]},
    {"compound": "c1cc(Cc2cnc[nH]2)ccn1", "note": "[BP1.5375, 4-(1H-imidazol-4-yl-methyl)-pyridine]", "values": [
      {"measurement": "rebound / sleep pattern upon interruption of repeated treatment", "setting": "[4]; after interruption of 6-day treatment with 0.3 mg/kg, p.o.", "result": "does not give rise to a rebound phenomenon"},
      {"measurement": "tolerance to sleep-promoting / hypnotic effect", "setting": "[4]", "result": "does not diminish"},
      {"measurement": "duration of deep SWS (slow wave sleep) period", "setting": "[4]; same very low dosages, administered 30 min before start of light-on period", "result": "enhanced significantly"},
      {"measurement": "inhibition of [3H]dofetidide binding", "setting": "hERG potassium channel [5]", "result": "not to inhibit"},
      {"measurement": "apparent toxicity sign", "setting": "[6]", "result": "does not induce any apparent toxicity sign"},
      {"measurement": "IC50", "setting": "[7]", "result": "≥ 100", "unit": "µM"},
      {"measurement": "IC50", "setting": "[8]", "result": 29.3, "unit": "µM"},
      {"measurement": "t-methylhistamine brain level variation vs. control, mean (%)", "setting": "H3R in brain [1]; 0.3 mg/kg", "result": "−42.1", "unit": "%"},
      {"measurement": "ratio of brain/blood AUCs", "setting": "[9]", "result": "close to unit"},
      {"measurement": "occurrence of withdrawal symptoms after Zolpidem interruption", "setting": "[10]", "result": "prevents the occurrence of withdrawal symptoms"},
      {"measurement": "EC50", "setting": "recombinant hH3R", "result": "~0.001", "unit": "µM"},
      {"measurement": "intrinsic activity compared with histamine", "setting": "recombinant hH3R; [35S]GTPγS binding, hH3R", "result": 0.75},
      {"measurement": "IC50", "setting": "[11]", "result": 3.1, "unit": "µM"},
      {"measurement": "stability when heated", "setting": "[2]; listed as immethridine", "result": "darkens"},
      {"measurement": "inhibition of potassium hERG current", "setting": "hERG potassium channel [12]", "result": "not to inhibit"},
      {"measurement": "Kp", "setting": "[13]", "result": 2.6},
      {"measurement": "ED50, reduction of levels of tele methylhistamine in brain", "setting": "H3R in brain [14]; given orally to rats or mice", "result": "~30", "unit": "micrograms/kg"},
      {"measurement": "tele methylhistamine response upon repeated administration", "setting": "H3R in brain [14]; repeated administration over 7 days", "result": "maintained"},
      {"measurement": "induction of CYP 450 isoforms (3A4, 2C9, 2E1, 2B6) and UGTs", "setting": "[15]", "result": "not induced"},
      {"measurement": "decrease of histamine in brain", "setting": "H3R", "result": "modestly decrease histamine in brain"},
      {"measurement": "EC50", "setting": "human H3R", "result": "~0.017", "unit": "µM"},
      {"measurement": "intrinsic activity compared to histamine", "setting": "human H3R; β arrestin translocation", "result": 0.5}
    ]},
    {"compound": "c1cc(Cc2cnc[nH]2)ccn1", "note": "[Immethridine dihydrochloride]", "values": [
      {"measurement": "t-methylhistamine brain level variation vs. control, mean (%)", "setting": "H3R in brain [1]", "result": "−37.0", "unit": "%"}
    ]},
    {"compound": "CS(=O)(=O)O.CS(=O)(=O)O.c1cc(Cc2c[nH]cn2)ccn1", "note": "[Immethridine methane sulfonate]", "values": [
      {"measurement": "t-methylhistamine brain level variation vs. control, mean (%)", "setting": "H3R in brain [1]", "result": "−40.0", "unit": "%"}
    ]},
    {"compound": "Cc1ccc(-c2nc3ccc(C)cn3c2CC(=O)N(C)C)cc1", "note": "[Zolpidem, reference compound]", "values": [
      {"measurement": "withdrawal symptoms upon interruption of repeated treatment", "setting": "[4]; after interruption of 15-day treatment with 20 mg/kg, p.o.", "result": "increases in sleep onset latency, decrease in deep sleep"},
      {"measurement": "tolerance to sleep-promoting / hypnotic effect", "setting": "[4]", "result": "rapid development of tolerance"}
    ]}
  ]
}
